Measurements published in patent US6919470B2, “Aryl and heteroaryl sulfonates” (priority 2000, dated 2005).

How the values were obtained:
[1] = Microsomal stability investigation (rat liver microsomes); format: in vitro ADME; conditions: predicted from microsomal data
Text: The metabolic stability of the compounds according to the invention can be found in the following in vitro assay: 4. Microsomal Stability Investigation The metabolic stability of the compounds according to the invention can be measured in rat liver microsomes (in analogy to J. Pharmacol. Exp. Ther. 1997, 283. 46-58). To determine the microsomal stability and extrapolate to the maximum possible bioavailability (Fmax) owing to the first-past effect in the liver (phase 1 reactions), the substance is incubated in low concentration with microsomal protein, with addition of cofactors, at 37° C. for 15 minutes. The incubation and the sampling take place on a modified automatic pipettor from Canberra Packard. Microsomal data (rat liver microsomes) predict a maximum possible availability of up to 100%.

[2] = Pharmacokinetics in the rat; format: in vivo
Protocol: The bioavailability of the compounds according to the invention, and other pharmacokinetic parameters, can be determined in vivo in the following way:
5. Pharmacokinetics in the Rat
The substance is infused through a Braunüle in a lateral tail vein directly into the blood stream over 15 minutes. A calibrated 20 ml syringe is used for accurate administration of the chosen dose and volume. A Braun Melsungen No. 152440/1 pump is used for the infusion.
The substance is administered as bolus by gavage.
Blood samples are collected from catheterized animals jugular vein) in heparinized tubes. The blood is centrifuged and the plasma is prepared in a suitable manner for analysis (LC-MS-MS). The plasma is stored at <−15° C. until analyzed.
d) Pharmacokinetic Results of Example 2

CB1 receptor = target: T1, CB1 receptor (Rattus norvegicus, UniProt P20272); assay: Rat hypothermia agonism test; format: in vivo; conditions: oral administration
T1 construct: from tissue; host or cells: whole animal (rat), oral dosing
T1 sequence (P20272 whole entry): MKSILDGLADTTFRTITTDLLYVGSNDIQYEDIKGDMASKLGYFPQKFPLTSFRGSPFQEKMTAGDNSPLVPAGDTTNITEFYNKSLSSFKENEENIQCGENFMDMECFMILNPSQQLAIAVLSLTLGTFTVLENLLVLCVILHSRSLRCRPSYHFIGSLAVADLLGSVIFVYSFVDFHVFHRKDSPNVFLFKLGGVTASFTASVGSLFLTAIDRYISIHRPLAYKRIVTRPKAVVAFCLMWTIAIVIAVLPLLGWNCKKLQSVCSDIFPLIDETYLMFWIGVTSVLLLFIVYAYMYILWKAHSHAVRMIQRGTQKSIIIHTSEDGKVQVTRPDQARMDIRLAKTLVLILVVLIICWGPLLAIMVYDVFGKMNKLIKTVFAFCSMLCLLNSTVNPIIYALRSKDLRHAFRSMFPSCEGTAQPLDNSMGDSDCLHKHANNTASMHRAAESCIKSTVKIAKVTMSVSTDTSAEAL
Protocol: The in vivo agonistic effect on the CB1 receptor was examined in the rat hypothermia assay.
Five minutes after determining the basal body temperature via an esophageal temperature probe, the test substance is administered (orally). A control group receives, likewise orally, only the solvent for the test substances (Cremophors EL 1-10%+distilled water). The body temperature is measured 120 and 240 minutes after oral administration. The size of the group for each dose is 5-7 animals (rats).
Rat Hypothermia Agonism Test

rat [3] = assay: Axotomy of sciatic branches in the rat (chronic pain model); format: in vivo; conditions: orally, acute administration, 60 minutes before the test
Protocol: 7. Axotomy of Sciatic Branches in the Rat (Chronic Pain Model)
Under pentobarbital anesthesia, the trifurcation of a sciatic nerve is exposed, and the peroneal and tibial branches are axotomized after the nerves have been ligated proximal of the axotomy site. Control animals undergo a sham operation. After the operation, the axotomized animals develop chronic mechanical allodynia and thermal hyperalgesia.
The mechanical allodynia is tested, comparing with sham-operated animals, with the aid of a pressure transducer (electronic von Frey anesthesiometer, IITC Inc.-Life Science Instruments, Woodland Hills, Calif., USA).
The thermal hyperalgesia can be determined by measuring the latency time within which a rat removes a paw from the area of a radiant heat source (plantar test, Ugo Basile (Milan)).
The substance was administered by various administration routes (i.v., i.p., orally, i.t., i.c.v., transdermally) at various times before the pain testing.
Example 2 reduces the hyperalgesia in the model at a minimally effective dose of 1 mg/kg orally (acute administration, 60 minutes before the test).

rat [4] = assay: 6-Hydroxydopamine (6-OH-DA) lesion in the rat, staircase test; format: in vivo; conditions: oral dose of 1.0 mg/kg bid
Protocol: 8.6-Hydroxydopamine (6-OH-DA) Lesion in the Rat
Degeneration of dopaminergic nigrostriatal and striatopallidal neurotransmission is the main characteristic of Parkinson's disease. The clinical picture of Parkinson's disease can be simulated to a large extent in an animal model in which the neurotoxin 6-OH-DA is injected intracerebrally in rats.
Male rats (Harlan Winkelmann, Germany; weight at start of test: 200-250 g) were used for the experiments described. The experimental animals were housed under controlled conditions (humidity, temperature) with a 12-hour light/dark cycle. Those animals not involved in an experiment had free access to water and feed.
On the day of the operation, 30 minutes before the lesion, pargyline (Sigma, St. Louis, Mo., USA; 50 mg/kg i.p.) and desmethylimipramine HCl (Sigma; 25 mg/kg i.p.) were administered to the animals in order respectively to suppress 6-hydroxydopamine metabolism and prevent uptake of 6-hydroxydopamine in noradrenergic structures. […]
After the operation, the animals were placed on a warm plate and, after regaining consciousness while being monitored, returned to their cage and received feed and water ad libitum. […]
The motor deficits after the lesion were quantified using the following test as described in the respective literature: […]

rat CB1 receptor = target: T2, rat CB1 receptor (Rattus norvegicus, UniProt P20272); assay: Rat CB1 luciferase reporter gene test; format: cell-based; conditions: rat CHOCB1 reporter cell line, forskolin-stimulated luciferase activity
T2 construct: expressed in transfected cells; host or cells: CHO (CHOluc9) luciferase reporter cells
T2 sequence (P20272 whole entry): as above
Protocol: 1. Rats CB1 Luciferase Reporter Gene Test
Stock cultures of a rat CHOCB1 reporter cell line were prepared by the method described in WO-A-98/37061, page 55 et seq.
The following test protocol was used for the substance screening: the stock cultures were cultivated in 50% of Dulbecco's modified Eagle medium/50% F-12 (DMEM/F12) with 10% FCS at 37° C. under 10% CO2 and split 1:10 after 2 to 3 days in each case. Test cultures were seeded at 5000cells […] in 96-well plates and cultured at 37° C. for 70 hours. The cultures were then cautiously washed with phosphate-buffered saline and reconstituted with serum-free Ultra-CHO medium (Bio-Whittaker). The substances dissolved in DMSO were diluted 1× in medium and pipetted into the test cultures (maximum DMSO final concentration in test mixture: 0.5%). 20 minutes later, forskolin was added and the cultures were then incubated in an incubator at 37° C. for 3 hours. […] Immediately thereafter luciferase substrate solution (2.5 mM ATP, 0.5 mM luciferin, 0.1 mM coenzyme A, 10 mM tricine, 1.35 mM MgSO4, 15 mM DTT, pH 7.8) and briefly shaken, and the luciferase activity was measured using a Hamamatsu camera system. […]
The IC50 values were calculated using the GraphPadPrism program (Hill equation, specifically: one-site competition).

Compound | maximum possible availability (Fmax) [1] | AUCnorm ([2]; oral, dose 3 mg/kg) [kg·h/L] | Cmax,norm ([2]; oral, dose 3 mg/kg) [kg/L] | F ([2]; oral, dose 3 mg/kg) [%] | clearance ([2]; plasma, iv, dose 0.3 mg/kg) [mL/min/kg] | half-life ([2]; plasma, iv, dose 0.3 mg/kg) [h] | Vd ([2]; plasma, iv, dose 0.3 mg/kg, read-out: Vss) [L/kg] | Tmax ([2]; plasma, oral, dose 3 mg/kg) [h] | half-life ([2]; plasma, oral, dose 3 mg/kg) [h] | ED−1° C. (effective dose for reducing the body temperature by 1° C.) (CB1 receptor) [mg/kg] | minimally effective dose reducing the hyperalgesia (rat [3]) [mg/kg] | fine coordination of the forepaws in the staircase test (rat [4]) | IC50 (rat CB1 receptor) [nM]
O=S(=O)(CCCC(F)(F)F)Oc1cccc(-c2cccc(C(F)(F)F)c2)c1 [Example 2] | up to 100% | 0.322 | 0.0674 | 100 | 51.7 | 2.2 | 5.8 | 3 | 1.7 | 5 | 1 | improvement in the fine coordination of the forepaws | 
CCCCCS(=O)(=O)Oc1cccc(-c2cccc(C(F)(F)F)c2)c1 [Example 3] |  |  |  |  |  |  |  |  |  |  |  |  | 2.4
Cc1ccnc(-c2cccc(OS(=O)(=O)CCCC(F)(F)F)c2)c1 [Example 17] |  |  |  |  |  |  |  |  |  |  |  |  | 16
